Here are results for one compound from patent US7655392B2, “Quenching methods for red blood cell inactivation process” (priority 2004, dated 2010).

Where two headings read alike, the source gives them in different places.

Common to all, as to assay type: cell-based
For one experiment, the system named is Serratia marcescens. The following applies: no PIC-1, 20 mM glutathione.
Experiment [1] deals with Vesicular Stomatitis Virus (VSV). The following applies: Table 6A: 20 mM glutathione+2 eq base only, no PIC-1.
The next experiment deals with red blood cells. The following applies: unit 6: 0.2 mM GSH+2 eq base, no PIC-1. As for the experimental part: In another assay, the rabbit polyclonal sera may be reacted with treated red blood cells. After washing off unbound antibody, a FITC labeled goat anti-rabbit Fab′2 fragment (anti H+L chains, Caltag) is added. The binding of FITC label to the red blood cells correlates with the amount of acridine bound to the red blood cell surface, and is assessed by FACScan™ analysis (Becton, Dickinson and Co., NJ). The relative modification of the red blood cells is determined from the FACScan™ mean fluorescence value.
A 20 mL sample of leukoreduced whole blood (Blood Source, Sacramento, Calif.) was centrifuged at 4,100×g for 5 minutes at room temperature in each of four 50 mL centrifuge tubes. The supernatant was removed from each tube to provide red cell concentrate (RCC). […] For each washed RCC, cells were resuspended in 5 mL of the solution used for washing. This is now referred to as the RBC test sample. […] These samples were incubated for 20 hours at room temperature. After incubation, the RBC were washed in BBS (Blood Bank Saline, 0.9% saline, unbuffered, Fisher Scientific) and were diluted to a final hematocrit of 4%. A 25 μL aliquot of each was mixed with 15 μL of rabbit polyclonal anti-acridine sera diluted 1:100 in BBS and the mixture was incubated at 37° C. for 30 minutes. The cells were subsequently washed with 1.5 mL BBS. After washing was complete, the cells were mixed with 50 μL of FITC labeled goat anti-rabbit Fab′2 fragment (1:64 dilution in BBS) and incubated at 37° C. for 30 minutes. […] Note that the quenching improves as glutathione is neutralized with increasing amounts of sodium hydroxide.
The FACScan analysis of the binding of rabbit anti-acridine sera to treated red cells was used to assess a variety of quenching conditions. […] The tables represent data from two different experiments, each with samples treated under standard conditions or with 20 mM neutralized glutathione. […] The data within an experiment provides the relative efficacy of the various treatments. Because the assay may depend on the lot of red blood cells used, the absolute values of mean fluorescence may vary from one study to the next, such that relative values should only be compared within a given experiment. […] Neutralized glutathione at 20 mM results in close to background levels.
An untreated control sample as well as a standard sample (co-addition of 2 mM acidic glutathione with 0.2 mM PIC-1) were also assessed.
Full units of red cell concentrates (Interstate Blood Bank, Inc., Memphis, Tenn.) were leukoreduced. A volume of 200 mL of this RCC (80% hematocrit) was mixed with 94 mL of Erythrosol or 100 mL of Adsol (Baxter Healthcare Corp., Deerfield, Ill.) as control (unit 1). A volume of 20 mL 8% dextrose was used to dissolve PIC-1 (mg) and acid glutathione (mg) and added to one unit to provide 0.2 mM PIC-1 and 2 mM glutathione (unit 2). […] For the glutathione, 1.2 mL of 10 N NaOH was added (2 equivalents). The PIC-1 was mixed with the unit, followed 1 minute later (unit 3) or 5 minutes later (unit 4) by glutathione. For unit 5, neutralized glutathione was mixed first, followed 10 minutes later by the PIC-1. […] All units were mixed by grasping the ends of the blood bag and mixing in a FIG. 8 motion 30 times. These were then incubated at room temperature for 20 hours total. A compound adsorption device (CAD), comprising a polymeric resin contained within a mesh pouch, was used for all but the control sample. This device is intended to remove residual PIC-1, PIC-1 breakdown products, and glutathione from the samples. Samples were incubated for 8 hours, then transferred to a second blood bag containing the CAD and incubated for an additional 12 hours. Following the room temperature incubation, samples were transferred to a refrigerator (4° C.) and stored up to 43 days.

Consider `N[C@@H](CCC(=O)N[C@@H](CS)C(=O)NCC(=O)O)C(=O)O` [glutathione, γ-L-glutamyl-L-cysteinyl-glycine], for which the “Log S. marcescens reduction” value in the experiment with Serratia marcescens (0 eq base) came to 0.02 Log; with Serratia marcescens (2 eq base), 0.31 Log. Besides, the “Log S. marcescens titer” value with Serratia marcescens (0 eq base) turned out to be 7.0 Log; in the experiment with Serratia marcescens (2 eq base) it was 7.4 Log. For the same compound, the “Log VSV reduction” value in experiment [1] is on record as −0.04 Log. Further, the “Log VSV titer” value in experiment [1] stood at 6.25 Log. The mean fluorescence in the experiment with red blood cells (16C day 0.8) came out at 2.16; with red blood cells (16C day 2), 1.78; with red blood cells (16C day 7), 1.58; with red blood cells (16C day 14), 1.48; in the experiment with red blood cells (16C day 22), 1.58; in the experiment on red blood cells (16C day 28), 2.02. Besides, the mean fluorescence worked out at 1.62 in the experiment on red blood cells (16C day 35) and 1.8 in the experiment with red blood cells (16C day 43).
